Key:
Conditions in all cases: treatment: drug + dasatinib (fixed dose, not stated); 5 days
[1] = system: 786-O; assay: GI50 of drug in presence of dasatinib; higher = less potent
Experimental: (§1)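 Primary HTS combination arm: 8 RCC cell lines treated with 8 doses (up to 10 uM) of each library drug plus a fixed dose of dasatinib (dose not stated) for 5 days; viability read by CellTiter-Glo and normalised to DMSO. GI50 was fitted with XLfit, AUC is the area under the dose-response curve, and minimum viability is the lowest fraction of DMSO viability across doses.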

[2] = system: A498; assay: as above
Experimental: as §1

[3] = system: ACHN; assay: as above
Experimental: as §1

[4] = system: CAKI-1; assay: as above
Experimental: as §1

[5] = system: TK-10; assay: as above
Experimental: as §1

[6] = system: UO-31; assay: as above
Experimental: as §1

[7] = system: 769-P; assay: minimum viability across doses, drug + dasatinib, relative to DMSO (fraction); higher = less growth inhibition
Experimental: as §1

[8] = system: 786-O; assay: as above
Experimental: as §1

[9] = system: A498; assay: as above
Experimental: as §1

[10] = system: ACHN; assay: as above
Experimental: as §1

[11] = system: CAKI-1; assay: as above
Experimental: as §1

[12] = system: SN12C; assay: as above
Experimental: as §1

[13] = system: TK-10; assay: as above
Experimental: as §1

[14] = system: UO-31; assay: as above
Experimental: as §1

[15] = system: 769-P; assay: AUC of dose-response viability curve, drug + dasatinib, normalised to DMSO (arbitrary (AUC of normalised viability)); higher = less growth inhibition
Experimental: as §1

[16] = system: 786-O; assay: as above
Experimental: as §1

[17] = system: A498; assay: as above
Experimental: as §1

[18] = system: ACHN; assay: as above
Experimental: as §1

[19] = system: CAKI-1; assay: as above
Experimental: as §1

[20] = system: SN12C; assay: as above
Experimental: as §1

[21] = system: TK-10; assay: as above
Experimental: as §1

[22] = system: UO-31; assay: as above
Experimental: as §1

[23] = system: 769-P; assay: GI50 of drug in presence of dasatinib; higher = less potent
Experimental: as §1

[24] = system: SN12C; assay: as above
Experimental: as §1

Row | GI50 of drug [1] | GI50 of drug [3] | SMILES | GI50 of drug [2] | GI50 of drug [4] | GI50 of drug [5] | GI50 of drug [6] | minimum viability across doses [7] | minimum viability across doses [8] | minimum viability across doses [9] | minimum viability across doses [10] | minimum viability across doses [11] | minimum viability across doses [12] | minimum viability across doses [13] | minimum viability across doses [14] | AUC of dose-response viability curve [15] | AUC of dose-response viability curve [16] | AUC of dose-response viability curve [17] | AUC of dose-response viability curve [18] | AUC of dose-response viability curve [19] | AUC of dose-response viability curve [20] | AUC of dose-response viability curve [21] | AUC of dose-response viability curve [22] | GI50 of drug [23] | GI50 of drug [24]
1 | < 3 nM | 3.25 nM | CO[C@H]1CC2CC[C@@H](C)[C@@](O)(O2)C(=O)C(=O)N2CCCC[C@H]2C(=O)O[C@H]([C@H](C)C[C@@H]2CCC(OC(=O)C(C)(CO)CO)[C@H](OC)C2)CC(=O)[C@H](C)/C=C(\C)[C@@H](O)[C@@H](OC)C(=O)[C@H](C)C[C@H](C)/C=C/C=C/C=C/1C (stereo in doubt) [Temsirolimus (Torisel)] + Cc1nc(Nc2ncc(C(=O)Nc3c(C)cccc3Cl)s2)cc(N2CCN(CCO)CC2)n1 [dasatinib] | > 10000 nM | 24.2 nM | 512 nM | 69.9 nM | 0.402 | 0.304 | 0.505 | 0.296 | 0.273 | 0.446 | 0.393 | 0.226 | 1.7 | 1.2 | 1.99 | 1.27 | 1.42 | 1.75 | 1.97 | 1.59 |  | 
2 |  | > 10000 nM | O=C1NC(=O)/C(=C/c2ccc(-c3ccc(F)cc3O)o2)S1 + Cc1nc(Nc2ncc(C(=O)Nc3c(C)cccc3Cl)s2)cc(N2CCN(CCO)CC2)n1 [dasatinib] | > 10000 nM | > 10000 nM | > 10000 nM | > 10000 nM | 0.532 | 0.449 | 1.06 | 0.567 | 0.628 | 0.651 | 0.649 | 1.02 | 2.41 | 2.08 | 3.96 | 2.15 | 2.4 | 2.41 | 2.51 | 3.97 | > 10000 nM | > 10000 nM
3 | 172 nM | 36.9 nM | Cc1cnc(NC(=O)Nc2cc(Br)c(C)cc2OC[C@@H]2CNCCO2)cn1 + Cc1nc(Nc2ncc(C(=O)Nc3c(C)cccc3Cl)s2)cc(N2CCN(CCO)CC2)n1 [dasatinib] | 2120 nM | 388 nM | 559 nM | 833 nM | 0.0737 | 0.00234 | 0.0633 | 0.0412 | 0.0829 | 0.113 | 0.162 | 0.00521 | 1.71 | 1.43 | 2.99 | 1.21 | 1.71 | 2.27 | 2.01 | 3.07 |  | 2090 nM
4 | > 10000 nM | 85.7 nM | COc1cc2ncnc(Nc3ccc(F)c(Cl)c3)c2cc1OCCCN1CCOCC1 [Gefitinib (Iressa)] + Cc1nc(Nc2ncc(C(=O)Nc3c(C)cccc3Cl)s2)cc(N2CCN(CCO)CC2)n1 [dasatinib] | > 10000 nM | 1730 nM | 1070 nM | 6180 nM | 0.177 | 0.56 | 0.808 | 0.187 | 0.169 | 0.588 | 0.267 | 0.3 | 1.72 | 2.56 | 3.49 | 1.56 | 2.08 | 2.49 | 2.22 | 2.9 |  | > 10000 nM
5 | 2410 nM | 24.1 nM | Cl.Cl.NC1(c2ccc(-c3nc4ccn5c(=O)[nH]nc5c4cc3-c3ccccc3)cc2)CCC1 [MK-2206 dihydrochloride] + Cc1nc(Nc2ncc(C(=O)Nc3c(C)cccc3Cl)s2)cc(N2CCN(CCO)CC2)n1 [dasatinib] | > 10000 nM | 111 nM | 1110 nM | 1740 nM | 0.234 | 0.224 | 0.755 | 0.202 | 0.102 | 0.551 | 0.263 | 0.0262 | 2.05 | 2.02 | 2.94 | 1.45 | 1.69 | 2.18 | 2.1 | 2.61 |  | > 10000 nM
6 | > 10000 nM | 2890 nM | Cc1cn(-c2cc(NC(=O)c3ccc(C)c(Nc4nccc(-c5cccnc5)n4)c3)cc(C(F)(F)F)c2)cn1 [Nilotinib (AMN-107)] + Cc1nc(Nc2ncc(C(=O)Nc3c(C)cccc3Cl)s2)cc(N2CCN(CCO)CC2)n1 [dasatinib] | > 10000 nM | 7790 nM | > 10000 nM | 4880 nM | 0.331 | 0.717 | 0.811 | 0.461 | 0.491 | 0.687 | 0.524 | 0.262 | 1.98 | 2.77 | 3.37 | 2 | 2.38 | 2.55 | 2.53 | 3.2 |  | > 10000 nM
7 | 2490 nM | 74.8 nM | C=CC(=O)Nc1cccc(Oc2nc(Nc3ccc(N4CCN(C)CC4)cc3OC)ncc2Cl)c1 [WZ4002] + Cc1nc(Nc2ncc(C(=O)Nc3c(C)cccc3Cl)s2)cc(N2CCN(CCO)CC2)n1 [dasatinib] | 9590 nM | 1180 nM | 617 nM | 1340 nM | 0.2 | 0.405 | 0.459 | 0.0147 | 0.145 | 0.0353 | 0.0404 | 0.0152 | 2.02 | 2.22 | 3.2 | 1.37 | 1.87 | 2.29 | 1.97 | 2.67 |  | 2420 nM
